pIC50: −log10 of the molar value. Structures can show the parent of a compound that is named as a salt.

T1 sequence (P49327 whole entry): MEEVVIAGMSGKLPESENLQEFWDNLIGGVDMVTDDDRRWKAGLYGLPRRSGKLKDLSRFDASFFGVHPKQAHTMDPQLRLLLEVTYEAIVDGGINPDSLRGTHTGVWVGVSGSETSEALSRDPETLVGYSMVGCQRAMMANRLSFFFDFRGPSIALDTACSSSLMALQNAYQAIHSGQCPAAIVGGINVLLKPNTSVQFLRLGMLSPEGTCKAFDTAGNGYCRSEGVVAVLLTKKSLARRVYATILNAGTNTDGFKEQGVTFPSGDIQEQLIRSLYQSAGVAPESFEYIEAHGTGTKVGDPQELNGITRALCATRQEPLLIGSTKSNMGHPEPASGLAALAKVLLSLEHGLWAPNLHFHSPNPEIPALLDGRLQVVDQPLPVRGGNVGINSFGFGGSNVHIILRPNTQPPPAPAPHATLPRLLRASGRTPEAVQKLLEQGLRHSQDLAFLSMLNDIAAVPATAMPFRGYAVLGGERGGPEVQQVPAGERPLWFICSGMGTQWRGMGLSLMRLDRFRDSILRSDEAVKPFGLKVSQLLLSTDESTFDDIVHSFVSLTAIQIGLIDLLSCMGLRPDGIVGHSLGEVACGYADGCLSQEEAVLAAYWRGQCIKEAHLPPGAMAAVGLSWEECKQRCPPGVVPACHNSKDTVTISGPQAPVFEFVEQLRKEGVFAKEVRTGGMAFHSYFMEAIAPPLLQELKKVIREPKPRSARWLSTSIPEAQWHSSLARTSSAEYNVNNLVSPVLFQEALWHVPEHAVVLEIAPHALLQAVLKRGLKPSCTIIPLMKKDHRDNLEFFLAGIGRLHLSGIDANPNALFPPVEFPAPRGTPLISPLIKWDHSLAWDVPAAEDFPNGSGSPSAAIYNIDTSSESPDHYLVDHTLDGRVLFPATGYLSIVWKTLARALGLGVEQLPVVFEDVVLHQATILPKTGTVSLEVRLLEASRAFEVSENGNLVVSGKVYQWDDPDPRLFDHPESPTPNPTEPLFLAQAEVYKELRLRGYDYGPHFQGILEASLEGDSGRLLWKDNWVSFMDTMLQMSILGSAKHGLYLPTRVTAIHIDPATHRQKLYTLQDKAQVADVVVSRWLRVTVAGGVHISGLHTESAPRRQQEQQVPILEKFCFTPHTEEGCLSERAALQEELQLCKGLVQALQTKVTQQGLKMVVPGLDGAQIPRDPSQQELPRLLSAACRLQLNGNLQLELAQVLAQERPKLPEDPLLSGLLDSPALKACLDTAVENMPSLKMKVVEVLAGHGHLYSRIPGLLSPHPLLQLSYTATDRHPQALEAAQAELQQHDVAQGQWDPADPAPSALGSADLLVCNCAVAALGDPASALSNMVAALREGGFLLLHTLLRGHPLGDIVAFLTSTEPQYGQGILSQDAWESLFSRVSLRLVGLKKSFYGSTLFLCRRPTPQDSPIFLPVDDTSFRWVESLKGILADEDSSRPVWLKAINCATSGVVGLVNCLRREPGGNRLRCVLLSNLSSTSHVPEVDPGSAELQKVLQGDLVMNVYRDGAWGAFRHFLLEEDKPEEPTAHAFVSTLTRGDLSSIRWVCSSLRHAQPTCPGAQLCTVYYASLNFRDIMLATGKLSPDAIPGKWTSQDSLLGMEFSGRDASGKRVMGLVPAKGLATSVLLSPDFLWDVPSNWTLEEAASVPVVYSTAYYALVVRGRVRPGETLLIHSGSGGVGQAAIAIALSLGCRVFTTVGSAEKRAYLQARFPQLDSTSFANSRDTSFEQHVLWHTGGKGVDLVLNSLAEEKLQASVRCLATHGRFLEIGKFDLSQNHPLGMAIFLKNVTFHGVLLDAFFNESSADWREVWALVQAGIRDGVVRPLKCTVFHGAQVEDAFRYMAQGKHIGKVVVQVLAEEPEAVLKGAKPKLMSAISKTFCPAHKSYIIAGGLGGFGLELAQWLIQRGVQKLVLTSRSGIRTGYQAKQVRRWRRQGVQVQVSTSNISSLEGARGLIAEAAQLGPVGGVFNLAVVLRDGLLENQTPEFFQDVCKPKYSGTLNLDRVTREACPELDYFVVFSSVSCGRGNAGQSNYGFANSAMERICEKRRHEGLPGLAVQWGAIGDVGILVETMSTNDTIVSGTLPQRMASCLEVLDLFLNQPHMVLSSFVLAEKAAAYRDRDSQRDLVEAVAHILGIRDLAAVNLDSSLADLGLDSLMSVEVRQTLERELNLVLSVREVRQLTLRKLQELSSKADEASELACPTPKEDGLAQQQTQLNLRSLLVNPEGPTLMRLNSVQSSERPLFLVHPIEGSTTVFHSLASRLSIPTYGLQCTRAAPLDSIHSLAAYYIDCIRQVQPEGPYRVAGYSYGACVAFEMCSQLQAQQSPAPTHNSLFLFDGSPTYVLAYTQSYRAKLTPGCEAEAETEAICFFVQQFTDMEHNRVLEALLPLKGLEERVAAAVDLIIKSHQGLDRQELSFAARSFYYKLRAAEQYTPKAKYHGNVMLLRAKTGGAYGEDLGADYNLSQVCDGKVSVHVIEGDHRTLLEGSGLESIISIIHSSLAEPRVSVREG

The first test has as its target T1, recombinant human baculovirus-expressed GST-tagged FASN (Homo sapiens, UniProt P49327).
T1 construct: GST
In words: FASN enzyme activity assay, fluorescence-based detection of CoA with CPM. The format is biochemical. As to conditions: 5 nM FASN, 150 μM NADPH, 10 μM acetyl-CoA, 25 μM malonyl-CoA, 90 minutes incubation; read-out: IC50 data for Additional Compounds of Formulae I-V(a): Activity. The gist of the method: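 CoA product reacted with thiol-reactive CPM (diluted to 50 μM in 70% ethanol), read at 390/530 nm after 30 min. Preceding reaction: 90 min, 5 nM recombinant GST-FASN, 150 μM NADPH, 10 μM acetyl-CoA, 25 μM malonyl-CoA, pH 7.5 HEPES, 0.5% DMSO. IC50s fitted by nonlinear sigmoidal regression.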
For `CCNC(=O)N1CCC(Oc2ccc(-c3ccc4ccc(O)nc4c3C)cc2)CC1` [Example 529, N-Ethyl-4-[4-(2-hydroxy-8-methyl-7-quinolyl)phenoxy]piperidine-1-carboxamide], the pIC50 is 5.00 to 6.00.
Still for that read-out and setting: to `Cc1c(-c2ccc(OC3CCN(C(=O)NCCN4CCCC4)CC3)cc2)ccc2cccnc12` [Example 530, 4-[4-(8-Methyl-7-quinolyl)phenoxy]-N-(2-pyrrolidin-1-ylethyl)piperidine-1-carboxamide HCl] belongs 7.00 to 9.00; to `Cc1c(-c2ccc(OC3CCN(C(=O)NCCN4CCOCC4)CC3)cc2)ccc2cccnc12` [Example 531, 4-[4-(8-Methyl-7-quinolyl)phenoxy]-N-(2-morpholinoethyl)piperidine-1-carboxamide HCl], 5.00 to 6.00; to `Cc1c(-c2ccc(OC3CCN(C(=O)N4CCN(C(C)C)CC4)CC3)cc2)ccc2cccnc12` [Example 532, (4-Isopropylpiperazin-1-yl)-[4-[4-(8-methyl-7-quinolyl)phenoxy]-1-piperidyl]methanone, HCl], 5.00 to 6.00.
On to `Cc1c(-c2ccc(OC3CCN(C(=O)N4CCN(C)CC4)CC3)cc2)ccc2cccnc12` [Example 533, (4-Methyllpiperazin-1-yl)-[4-[4-(8-methyl-7-quinolyl)phenoxy]-1-piperidyl]methanone, HCl], for which the pIC50 is 5.00 to 6.00.
Still for that read-out and setting: with `Cc1c(-c2ccc(OC3CCN(C(=O)N4CCC(N5CCOCC5)CC4)CC3)cc2)ccc2cccnc12` [Example 534, [4-[4-(8-Methyl-7-quinolyl)phenoxy]-1-piperidyl]-(4-morpholino-1-piperidyl)methanone, HCl] the figure was 5.00 to 6.00; with `CCN1CCN(C(=O)N2CCC(Oc3ccc(-c4ccc5cccnc5c4C)cc3)CC2)CC1` [Example 535, (4-Ethyl lpiperazin-1-yl)-[4-[4-(8-methyl-7-quinolyl)phenoxy]-1-piperidyl]methanone tosylate], 5.00 to 6.00.
Turning to `CCNC(=O)N1CCC(Oc2ccc(-c3ccc4ccnn4c3C)cc2)CC1` [Example 536, N-Ethyl-4-[4-(7-methylpyrazolo[1,5-a]pyridin-6-yl)phenoxy]piperidine-1-carboxamide], the pIC50 is 5.00 to 6.00.
Regarding `Cc1c(-c2ccc(OC3CCN(C(=O)NOC(C)C)CC3)cc2)ccc2ccnn12` [Example 537, N-Isopropoxy-4-[4-(7-methylpyrazolo[1,5-a]pyridin-6-yl)phenoxy]piperidine-1-carboxamide], the pIC50 is 7.00 to 9.00.
Still for that read-out and setting: with `CCONC(=O)N1CCC(Oc2ccc(-c3ccc4ccnn4c3C)cc2)CC1` [Example 538, N-Ethoxyoxy-4-[4-(7-methylpyrazolo[1,5-a]pyridin-6-yl)phenoxy]piperidine-1-carboxamide] the figure was 7.00 to 9.00.
Same read-out and setting: with `CONC(=O)N1CCC(Oc2ccc(-c3ccc4ccnn4c3C)cc2)CC1` [Example 539, N-Methoxyoxy-4-[4-(7-methylpyrazolo[1,5-a]pyridin-6-yl)phenoxy]piperidine-1-carboxamide] the figure was 7.00 to 9.00; with `Cc1c(-c2ccc(OC3CCN(C(=O)NCC4CC4)CC3)cc2)ccc2cccnc12` [Example 540, N-(Cyclopropylmethyl)-4-[4-(8-methyl-7-quinolyl)phenoxy]piperidine-1-carboxamide, HCl], 7.00 to 9.00.
`Cc1c(-c2ccc(OC3CCN(C(=O)NCC(C)C)CC3)cc2)ccc2cccnc12` [Example 541, N-Isobutyl-4-[4-(8-methyl-7-quinolyl)phenoxy]piperidine-1-carboxamide, HCl]: the pIC50 was 7.00 to 9.00.
As for `COCCNC(=O)N1CCC(Oc2ccc(-c3ccc4cccnc4c3C)cc2)CC1` [Example 542, N-(2-Methoxyethyl)-4-[4-(8-methyl-7-quinolyl)phenoxy]piperidine-1-carboxamide HCl], the pIC50 is 7.00 to 9.00.
For `Cc1c(-c2ccc(OC3CCN(C(=O)NOC(C)C)CC3)cc2)ccc2cccnc12` [Example 543, N-Isopropoxy-4-[4-(8-methyl-7-quinolyl)phenoxy]piperidine-1-carboxamide], the pIC50 is 5.00 to 6.00.
Still for that read-out and setting: with `Cc1c(-c2ccc(OC3CCN(C(=O)NOCC(C)C)CC3)cc2)ccc2cccnc12` [Example 544, N-Isobutoxy-4-[4-(8-methyl-7-quinolyl)phenoxy]piperidine-1-carboxamide] the figure was 7.00 to 9.00; with `Cc1c(-c2ccc(OC3CCN(C(=O)NCCN(C)C)CC3)cc2)ccc2cccnc12` [Example 545, N-(2-Dimethylaminoethyl)-4-[4-(8-methyl-7-quinolyl)phenoxy]piperidine-1-carboxamide HCl], 7.00 to 9.00.
Still for that read-out and setting: with `Cc1c(-c2ccc(OC3CCN(C(=O)OCCN4CCOCC4)CC3)cc2)ccc2cccnc12` [Example 546, 2-Morpholinoethyl 4-[4-(8-methyl-7-quinolyl)phenoxy]piperidine-1-carboxylate 2HCl] the figure was 5.00 to 6.00.
As to `Cc1c(-c2ccc(OC3CCN(C(=O)OCCN4CCCC4)CC3)cc2)ccc2cccnc12` [Example 547, 2-Pyrrolidin-1-ylethyl 4-[4-(8-methyl-7-quinolyl)phenoxy]piperidine-1-carboxylate, 2HCl], the pIC50 is 5.00 to 6.00.
The same measure, in the same setting: to `Cc1c(-c2ccc(OC3CCN(C(=O)NCCc4c[nH]cn4)CC3)cc2)ccc2cccnc12` [Example 548, N-[2-(1H-Imidazol-4-yl)ethyl]-4-[4-(8-methyl-7-quinolyl)phenoxy]piperidine-1-carboxamide, 2HCl] belongs 5.00 to 6.00.

Staying with this test, now noted: 5 nM FASN, 150 μM NADPH, 10 μM acetyl-CoA, 25 μM malonyl-CoA, 90 minutes incubation; read-out: IC50 data for Compounds of Formulae I-V/V(a): Activity.
As for `CC(C)C(=O)N1CCC(S(=O)(=O)c2ccc(-c3ccc4cccnc4c3)cc2)CC1` [Example 512, 2-Methyl-1-[4-(4-quinolin-7-yl-benzenesulfonyl)-piperidin-1-yl]-propan-1-one], the pIC50 is 5.00 to 6.00.
In the case of `CC(C)C(=O)N1CCC(S(=O)(=O)c2ccc(-c3ccc4ccncc4c3)cc2)CC1` [Example 513, 1-[4-(4-Isoquinolin-7-yl-benzenesulfonyl)-piperidin-1-yl]-2-methylpropan-1-one], the pIC50 is 5.00 to 6.00.
Consider `CC(C)C(=O)N1CCC(S(=O)(=O)c2ccc(-c3ccc4cnccc4c3)cc2)CC1` [Example 514, 1-[4-(4-Isoquinolin-6-yl-benzenesulfonyl)-piperidin-1-yl]-2-methyl-propan-1-one], for which the pIC50 was 5.00 to 6.00.
The same measure, in the same setting: with `CC(C)C(=O)N1CCC(S(=O)(=O)c2ccc(-c3ccc4occc4c3)cc2)CC1` [Example 515, 1-[4-(4-Benzofuran-5-yl-benzenesulfonyl)-piperidin-1-yl]-2-methyl-propan-1-one] the figure was 5.00 to 6.00.
Same read-out and setting: with `CCC(=O)N1CCC(Sc2ccc(-c3ccc4cccnc4c3)cc2)CC1` [Example 516, 1-(4-((4-(quinolin-7-yl)phenyl)thio)piperidin-1-yl)propan-1-one, HCl] the figure was 7.00 to 9.00; with `CCC(=O)N1CCC(Sc2ccc(-c3ccc4cnccc4c3)cc2)CC1` [Example 517, 1-(4-((4-(Isoquinolin-6-yl)phenyl)thio)piperidin-1-yl)propan-1-one, HCl], 7.00 to 9.00; with `CCC(=O)N1CCC(Sc2ccc(-c3cnc4ccccc4c3)cc2)CC1` [Example 518, 1-(4-((4-(Quinolin-3-yl)phenyl)thio)piperidin-1-yl)propan-1-one, HCl], 7.00 to 9.00.
Still for that read-out and setting: to `CCC(=O)N1CCC(Sc2ccc(-c3cncc4ccccc34)cc2)CC1` [Example 519, 1-(4-((4-(Isoquinolin-4-yl)phenyl)thio)piperidin-1-yl)propan-1-one, HCl] belongs 5.00 to 6.00.
With `CC(C)C(=O)N1CCC(Sc2ccc(-c3ccc4cccnc4c3)cc2)CC1` [Example 520, HCl], the pIC50 was 7.00 to 9.00.
On the same count and under the same terms, to `CC(C)C(=O)N1CCC(Sc2ccc(-c3ccc4cnccc4c3)cc2)CC1` [Example 521, 1-(4-((4-(Isoquinolin-6-yl)phenyl)thio)piperidin-1-yl)-2-methylpropan-1-one HCl] belongs 6.00 to 7.00; to `CC(C)C(=O)N1CCC(Sc2ccc(-c3cnc4ccccc4c3)cc2)CC1` [Example 522, 2-Methyl-1-(4-((4-(quinolin-3-yl)phenyl)thio)piperidin-1-yl)propan-1-one, HCl], 5.00 to 6.00; to `CC(C)C(=O)N1CCC(Sc2ccc(-c3cncc4ccccc34)cc2)CC1` [Example 523, 1-(4-((4-(Isoquinolin-4-yl)phenyl)thio)piperidin-1-yl)-2-methylpropan-1-one HCl], 5.00 to 6.00.
Regarding `CCC(=O)N1CCC(N(C)c2ccc(-c3cnc4ccccc4c3)cc2)CC1` [Example 524, 1-{4-[Methyl-(4-quinolin-3-yl-phenyl)-amino]-piperidin-1-yl}-propan-1-one, HCl], the pIC50 is 6.00 to 7.00.
Take `CN(c1ccc(-c2cnc3ccccc3c2)cc1)C1CCN(C(=O)C2CC2)CC1` [Example 525, Cyclopropyl-{4-[methyl-(4-quinolin-3-yl-phenyl)-amino]-piperidin-1-yl}-methanone, HCl]: the pIC50 was 6.00 to 7.00.
On the same count and under the same terms, to `CCC(=O)N1CCC(Nc2ccc(-c3cnc4ccccc4c3)cc2)CC1` [Example 526, 1-[4-(4-Quinolin-3-yl-phenylamino)-piperidin-1-yl]-propan-1-one, HCl] belongs 5.00 to 6.00.
Same read-out and setting: with `O=C(C1CC1)N1CCC(Nc2ccc(-c3cnc4ccccc4c3)cc2)CC1` [Example 527, Cyclopropyl-[4-(4-quinolin-3-yl-phenylamino)-piperidin-1-yl]-methanone, HCl] the figure was 5.00 to 6.00; with `CN(c1ccc(-c2cnc3ccccc3c2)cc1)C1CCN(C(=O)[C@H]2CCCO2)CC1` [Example 528, {4-[Methyl-(4-quinolin-3-yl-phenyl)-amino]-piperidin-1-yl}-(R)-tetrahydrofuran-2-yl-methanone, HCl], 6.00 to 7.00.

The values above are taken from US9902696B2, “1,4-substituted piperidine derivatives” (Cephalon, Inc., priority 2015, dated 2018).
